# Source: patent publication US4698352A, “4-oxo-1,4-dihydronicotinic acid derivatives, salts thereof, and antibacterial agents containing the same” (Toyama Chemical Co., Ltd., priority 1982, dated 1987)
# Where two headings read alike, the source gives them in different places.
# Key:
# Assay in all cases: Antibacterial activity (MIC), agar dilution
# Type in all cases: cell-based
# E. coli NIHJ JC-2 = conditions: Escherichia coli, NIHJJC2, 20 h
# Text: (§1) The amount of bacteria inoculated was 10^4 cells per plate (10^6 cells per ml).
# Kl. pneumoniae Y-41 = conditions: Klebsiella pneumoniae, Y41, 10^6 cells per ml, 37° C., 20 hours, read-out: MIC
# Text: as §1
# St. aureus FDA209P = conditions: Staphylococcus aureus, FDA209P, 20 h, St. aureus FDA209P; 10^6 cells per ml; 37° C., 20 hours; read-out: MIC
# Text: as §1
# Pro. vulgaris GN3027 = conditions: Proteus vulgaris, GN3027, 20 h, Pro. vulgaris GN3027; 10^6 cells per ml; 37° C., 20 hours; read-out: MIC
# Text: as §1
# Aci. antitratus A-6 = conditions: 20 h
# Text: as §1
# Pro. mirabilis T-111 = conditions: Proteus mirabilis, 37° C.
# Text: as §1
# Ent. cloacae IID977 = conditions: Enterobacter cloacae, IID977, 20 h, Ent. cloacae IID977; 10^6 cells per ml; 37° C., 20 hours; read-out: MIC
# Text: as §1
# Ps. aeruginosa S-68 = conditions: Pseudomonas aeruginosa
# Text: as §1
# Kl. pneumoniae Y-50 = conditions: Klebsiella pneumoniae, Y50, 20 h, 10^6 cells per ml, 37° C., read-out: MIC
# Text: as §1
# Pro. morganii T-216 = conditions: Morganella morganii, 37° C.
# Text: as §1
# Ps. aeruginosa IFO3445 = conditions: Pseudomonas aeruginosa; Ps. aeruginosa IFO3445; 10^6 cells per ml; 37° C., 20 hours; read-out: MIC
# Text: as §1
# E. coli TK-111 = conditions: Escherichia coli, TK111, 20 h, E. coli TK-111; 10^6 cells per ml; 37° C., 20 hours; read-out: MIC
# Text: as §1
# Pro. vulgaris GN76** = conditions: Proteus vulgaris
# Text: as §1
# (§2) ** Cephalospolinase-producing bacteria
# E. coli GN5482** = conditions: Escherichia coli, 20 h; E. coli GN5482, cephalospolinase-producing; 10^6 cells per ml; read-out: MIC
# Text: as §1, §2
# Ps. aeruginosa GN918** = conditions: Pseudomonas aeruginosa, Ps. aeruginosa GN918, cephalospolinase-producing, 10^6 cells per ml
# Text: as §1, §2
# E. coli TK-3* = conditions: Escherichia coli, 20 h, E. coli TK-3, penicillinase-producing; 10^6 cells per ml; read-out: MIC
# Text: as §1
# (§3) * Penicillinase-producing bacteria
# Ps. aeruginosa GN3379* = conditions: Pseudomonas aeruginosa, Ps. aeruginosa GN3379, penicillinase-producing, 10^6 cells per ml
# Text: as §1, §3
# St. aureus F-137* = conditions: Staphylococcus aureus, 20 h, St. aureus F-137, penicillinase-producing; 10^6 cells per ml; read-out: MIC
# Text: as §1, §3
# Kl. pneumoniae Y-4* = conditions: Klebsiella pneumoniae, 20 h, Kl. pneumoniae Y-4, penicillinase-producing; 10^6 cells per ml; read-out: MIC
# Text: as §1, §3
# [1] = S68, Ps. aeruginosa S-68, 10^6 cells per ml, 37° C., 20 hours, read-out: MIC
# [2] = T216, 10^6 cells per ml, 20 hours, read-out: MIC
# [3] = E. coli NIHJ JC-2, 10^6 cells per ml, 37° C., 20 hours, read-out: MIC
# [4] = Aci. antitratus A-6, 10^6 cells per ml, 37° C., 20 hours, read-out: MIC
# [5] = 20 h, Pro. vulgaris GN76, cephalospolinase-producing, 10^6 cells per ml, read-out: MIC
# [6] = T111, 10^6 cells per ml, 20 hours, read-out: MIC
smiles,measurement,setting,value
O=C(O)c1cn(-c2ccc(F)cc2)c(-c2ccc(Cl)cc2)cc1=O,MIC,E. coli NIHJ JC-2,3.13 µg/mL
same,MIC,Kl. pneumoniae Y-41,12.5 µg/mL
same,MIC,St. aureus FDA209P,6.25 µg/mL
same,MIC,Pro. vulgaris GN3027,0.39 µg/mL
same,MIC,Aci. antitratus A-6,3.13 µg/mL
same,MIC,"Pro. mirabilis T-111; T111, 20 h, 10^6 cells per ml",12.5 µg/mL
same,MIC,Ent. cloacae IID977,6.25 µg/mL
same,MIC,Ps. aeruginosa S-68; [1],50 µg/mL
same,MIC,Kl. pneumoniae Y-50,3.13 µg/mL
same,MIC,Pro. morganii T-216; [2],6.25 µg/mL
same,MIC,Ps. aeruginosa IFO3445,> 100 µg/mL
same,MIC,E. coli TK-111,1.56 µg/mL
same,MIC,"Pro. vulgaris GN76**; GN76, 20 h",3.13 µg/mL
same,MIC,E. coli GN5482**,0.39 µg/mL
same,MIC,"Ps. aeruginosa GN918**; 20 h, read-out: MIC",100 µg/mL
same,MIC,E. coli TK-3*,6.25 µg/mL
same,MIC,"Ps. aeruginosa GN3379*; 20 h, read-out: MIC",50 µg/mL
same,MIC,St. aureus F-137*,6.25 µg/mL
same,MIC,Kl. pneumoniae Y-4*,25 µg/mL
Cc1cc(O)ccc1-n1cc(C(=O)O)c(=O)cc1-c1ccc2c(c1)NCCN2C,MIC,E. coli NIHJ JC-2; [3],0.39 µg/mL
same,MIC,Kl. pneumoniae Y-41,3.13 µg/mL
same,MIC,St. aureus FDA209P,0.78 µg/mL
same,MIC,Pro. vulgaris GN3027,0.78 µg/mL
same,MIC,Aci. antitratus A-6; [4],1.56 µg/mL
same,MIC,"Pro. mirabilis T-111; T111, 20 h, 10^6 cells per ml",3.13 µg/mL
same,MIC,Ent. cloacae IID977,1.56 µg/mL
same,MIC,Ps. aeruginosa S-68; [1],12.5 µg/mL
same,MIC,Kl. pneumoniae Y-50,0.39 µg/mL
same,MIC,"Pro. morganii T-216; T216, 20 h, 10^6 cells per ml",3.13 µg/mL
same,MIC,Ps. aeruginosa IFO3445,25 µg/mL
same,MIC,E. coli TK-111,0.2 µg/mL
same,MIC,Pro. vulgaris GN76**; [5],1.56 µg/mL
same,MIC,E. coli GN5482**,0.1 µg/mL
same,MIC,"Ps. aeruginosa GN918**; GN918, 20 h",3.13 µg/mL
same,MIC,E. coli TK-3*,0.78 µg/mL
same,MIC,"Ps. aeruginosa GN3379*; 20 h, read-out: MIC",25 µg/mL
same,MIC,St. aureus F-137*,0.78 µg/mL
same,MIC,Kl. pneumoniae Y-4*,6.25 µg/mL
O=C(O)c1cn(-c2ccc(O)cc2)c(-c2ccc(-c3ccccc3)cc2)cc1=O,MIC,E. coli NIHJ JC-2; [3],0.39 µg/mL
same,MIC,Kl. pneumoniae Y-41,12.5 µg/mL
same,MIC,St. aureus FDA209P,≤ 0.05 µg/mL
same,MIC,Pro. vulgaris GN3027,0.2 µg/mL
same,MIC,Aci. antitratus A-6; [4],0.39 µg/mL
same,MIC,Pro. mirabilis T-111; [6],3.13 µg/mL
same,MIC,Ent. cloacae IID977,3.13 µg/mL
same,MIC,"Ps. aeruginosa S-68; S68, 20 h",12.5 µg/mL
same,MIC,Kl. pneumoniae Y-50,0.39 µg/mL
same,MIC,Pro. morganii T-216; [2],1.56 µg/mL
same,MIC,Ps. aeruginosa IFO3445,25 µg/mL
same,MIC,E. coli TK-111,0.1 µg/mL
same,MIC,Pro. vulgaris GN76**; [5],0.78 µg/mL
same,MIC,E. coli GN5482**,≤ 0.05 µg/mL
same,MIC,"Ps. aeruginosa GN918**; 20 h, read-out: MIC",1.56 µg/mL
same,MIC,E. coli TK-3*,0.78 µg/mL
same,MIC,"Ps. aeruginosa GN3379*; 20 h, read-out: MIC",100 µg/mL
same,MIC,St. aureus F-137*,≤ 0.05 µg/mL
same,MIC,Kl. pneumoniae Y-4*,12.5 µg/mL
Cc1cc(O)ccc1-n1cc(C(=O)O)c(=O)cc1CCc1ccccc1,MIC,E. coli NIHJ JC-2; [3],3.13 µg/mL
same,MIC,Kl. pneumoniae Y-41,12.5 µg/mL
same,MIC,St. aureus FDA209P,0.78 µg/mL
same,MIC,Pro. vulgaris GN3027,0.1 µg/mL
same,MIC,Aci. antitratus A-6; [4],0.39 µg/mL
same,MIC,"Pro. mirabilis T-111; T111, 20 h, 10^6 cells per ml",12.5 µg/mL
same,MIC,Ent. cloacae IID977,6.25 µg/mL
same,MIC,"Ps. aeruginosa S-68; S68, 20 h",12.5 µg/mL
same,MIC,Kl. pneumoniae Y-50,1.56 µg/mL
same,MIC,Pro. morganii T-216; [2],3.13 µg/mL
same,MIC,Ps. aeruginosa IFO3445,25 µg/mL
same,MIC,E. coli TK-111,0.39 µg/mL
same,MIC,"Pro. vulgaris GN76**; GN76, 20 h",1.56 µg/mL
same,MIC,E. coli GN5482**,0.2 µg/mL
same,MIC,"Ps. aeruginosa GN918**; 20 h, read-out: MIC",3.13 µg/mL
same,MIC,E. coli TK-3*,3.13 µg/mL
same,MIC,"Ps. aeruginosa GN3379*; GN3379, 20 h",12.5 µg/mL
same,MIC,St. aureus F-137*,0.78 µg/mL
same,MIC,Kl. pneumoniae Y-4*,12.5 µg/mL
Cc1nc(-c2ccc(-c3cc(=O)c(C(=O)O)cn3-c3ccc(O)cc3C)cc2)cs1,MIC,E. coli NIHJ JC-2; [3],0.1 µg/mL
same,MIC,Kl. pneumoniae Y-41,1.56 µg/mL
same,MIC,St. aureus FDA209P,≤ 0.05 µg/mL
same,MIC,Pro. vulgaris GN3027,0.39 µg/mL
same,MIC,Aci. antitratus A-6; [4],≤ 0.05 µg/mL
same,MIC,Pro. mirabilis T-111; [6],0.78 µg/mL
same,MIC,Ent. cloacae IID977,0.39 µg/mL
same,MIC,Ps. aeruginosa S-68; [1],3.13 µg/mL
same,MIC,Kl. pneumoniae Y-50,0.2 µg/mL
same,MIC,"Pro. morganii T-216; T216, 20 h, 10^6 cells per ml",1.56 µg/mL
same,MIC,Ps. aeruginosa IFO3445,3.13 µg/mL
same,MIC,E. coli TK-111,≤ 0.05 µg/mL
same,MIC,Pro. vulgaris GN76**; [5],0.39 µg/mL
same,MIC,E. coli GN5482**,≤ 0.05 µg/mL
same,MIC,"Ps. aeruginosa GN918**; 20 h, read-out: MIC",0.39 µg/mL
same,MIC,E. coli TK-3*,0.39 µg/mL
same,MIC,"Ps. aeruginosa GN3379*; 20 h, read-out: MIC",6.25 µg/mL
same,MIC,St. aureus F-137*,≤ 0.05 µg/mL
same,MIC,Kl. pneumoniae Y-4*,1.56 µg/mL
Cc1cc(O)ccc1-n1cc(C(=O)O)c(=O)cc1/C=C/c1ccccc1,MIC,E. coli NIHJ JC-2; [3],0.39 µg/mL
same,MIC,Kl. pneumoniae Y-41,3.13 µg/mL
same,MIC,St. aureus FDA209P,0.1 µg/mL
same,MIC,Pro. vulgaris GN3027,0.1 µg/mL
same,MIC,Aci. antitratus A-6; [4],0.1 µg/mL
same,MIC,"Pro. mirabilis T-111; T111, 20 h, 10^6 cells per ml",3.13 µg/mL
same,MIC,Ent. cloacae IID977,1.56 µg/mL
same,MIC,"Ps. aeruginosa S-68; S68, 20 h",3.13 µg/mL
same,MIC,Kl. pneumoniae Y-50,0.39 µg/mL
same,MIC,Pro. morganii T-216; [2],1.56 µg/mL
same,MIC,Ps. aeruginosa IFO3445,25 µg/mL
same,MIC,E. coli TK-111,0.2 µg/mL
same,MIC,Pro. vulgaris GN76**; [5],0.39 µg/mL
same,MIC,E. coli GN5482**,≤ 0.05 µg/mL
same,MIC,"Ps. aeruginosa GN918**; 20 h, read-out: MIC",1.56 µg/mL
same,MIC,E. coli TK-3*,0.39 µg/mL
same,MIC,"Ps. aeruginosa GN3379*; 20 h, read-out: MIC",6.25 µg/mL
same,MIC,St. aureus F-137*,0.2 µg/mL
same,MIC,Kl. pneumoniae Y-4*,3.13 µg/mL
